We go through 21 compounds from ChEMBL document CHEMBL4219262, “Design, synthesis and evaluation of benzoheterocycle analogues as potent antifungal agents targeting CYP51” (Bioorg Med Chem, 2018).

The test system of data set [1] is Candida albicans. As to the kind of experiment: Antifungal activity against Candida albicans ATCC SC5314 after 24 hrs by serial dilution method. It counts as functional. As to conditions: SC5314, 24 h.
Data set [2] has as its system Candida albicans. As to the kind of experiment: Antifungal activity against Candida albicans CPCC 400523 after 24 hrs by serial dilution method. It counts as functional. As to conditions: CPCC 400523, 24 h.
The test system of the next data set is Cryptococcus neoformans. As to the kind of experiment: Antifungal activity against Cryptococcus neoformans cgmcc 2.3161 after 72 hrs by serial dilution method. Conditions: cgmcc 2.3161, 72 h. It counts as functional.
The subject of a further data set is Candida tropicalis. The data set is described as follows: Antifungal activity against Candida tropicalis cgmcc 2.3739 after 24 hrs by serial dilution method. It counts as functional. Conditions: cgmcc 2.3739, 24 h.
Another data set relates to Aspergillus fumigatus. As to the kind of experiment: Antifungal activity against Aspergillus fumigatus cgmcc 3.7795 after 7 days by serial dilution method. As to conditions: cgmcc 3.7795, 168 h. It counts as functional.
In data set [3] the test system is Candida albicans. The data set is described as follows: Antifungal activity against fluconazole-resistant Candida albicans strain 103 after 24 hrs by serial dilution method. It counts as functional. Conditions: Candida albicans, 103, 24 h.
Data set [4] concerns Candida albicans. As to the kind of experiment: Antifungal activity against fluconazole-resistant Candida albicans strain 100 after 24 hrs by serial dilution method. It counts as functional. As to conditions: Candida albicans, 100, 24 h.
The nature of data set [5]: Stability in human plasma assessed as parent compound remaining at 2 uM after 60 mins by LC-MS/MS analysis. It counts as ADME, cell-free. As to conditions: read-out: Stability.
A short description of data set [6]: Stability in human plasma assessed as parent compound remaining at 2 uM after 120 mins by LC-MS/MS analysis. It counts as ADME, cell-free. Conditions: read-out: Stability.

In brackets after ≈: the same amount, converted by molar mass.

Turning to `CC(C)OC(=O)[C@H](Cn1ccnc1)NC(=O)c1nc2ccc(Br)cc2s1`, the minimum inhibitory concentration (MIC) against Candida albicans [1] was 0.125 µg/mL (≈ 0.286 µM); with Candida albicans [2], 0.5 µg/mL (≈ 1.14 µM); in the data set with Cryptococcus neoformans it was 2 µg/mL (≈ 4.57 µM); in the data set on Candida tropicalis, 1 µg/mL (≈ 2.29 µM); in the data set on Aspergillus fumigatus it was over 64 µg/mL.
The matching figures for `CC(C)COC(=O)[C@H](Cn1ccnc1)NC(=O)c1cnc2ccccc2c1`: 64 µg/mL (≈ 175 µM), 64 µg/mL (≈ 175 µM), 64 µg/mL (≈ 175 µM), 32 µg/mL (≈ 87.3 µM) and 64 µg/mL (≈ 175 µM).
For `CC(C)COC(=O)[C@H](Cn1ccnc1)NC(=O)c1cc2ccccc2s1`, the MIC was determined as 0.5 µg/mL (≈ 1.35 µM) in the data set on Candida albicans [1]; 1 µg/mL (≈ 2.69 µM) against Candida albicans [2]; 1 µg/mL (≈ 2.69 µM) in the data set on Cryptococcus neoformans; 0.25 µg/mL (≈ 0.673 µM) in the data set on Candida tropicalis; 8 µg/mL (≈ 21.5 µM) against Aspergillus fumigatus.
In the case of `CC(C)OC(=O)[C@H](Cn1ccnc1)NC(=O)c1nc2ccccc2[nH]1`, the MIC with Candida albicans [1], against Candida albicans [2], in the data set on Cryptococcus neoformans, against Candida tropicalis and in the data set on Aspergillus fumigatus was 64 µg/mL (≈ 187 µM) in each case.
As to `CC(C)OC(=O)[C@H](Cn1ccnc1)NC(=O)c1cc2ccccc2n1C`, the minimum inhibitory concentration (MIC) in the data set on Candida albicans [1] was 8 µg/mL (≈ 22.6 µM); with Candida albicans [2] it was 8 µg/mL (≈ 22.6 µM); against Cryptococcus neoformans it was 64 µg/mL (≈ 181 µM); against Candida tropicalis, 0.5 µg/mL (≈ 1.41 µM); against Aspergillus fumigatus, 64 µg/mL (≈ 181 µM).
On to `CC(C)OC(=O)[C@H](Cn1ccnc1)NC(=O)c1cnc2ccccc2n1`, for which the MIC against Candida albicans [1] was determined as 64 µg/mL (≈ 181 µM); against Candida albicans [2] it was 64 µg/mL (≈ 181 µM); against Cryptococcus neoformans, 64 µg/mL (≈ 181 µM); in the data set on Candida tropicalis, 16 µg/mL (≈ 45.3 µM); against Aspergillus fumigatus, 64 µg/mL (≈ 181 µM).
For `CC(C)COC(=O)[C@H](Cn1ccnc1)NC(=O)c1noc2c1CCc1ccccc1-2`, the MIC in the data set with Candida albicans [3] came out at 0.5 µg/mL (≈ 1.22 µM); against Candida albicans [4] it was 1 µg/mL (≈ 2.45 µM); with Candida albicans [1] it was 0.125 µg/mL (≈ 0.306 µM); in the data set on Candida albicans [2], 0.5 µg/mL (≈ 1.22 µM); in the data set with Cryptococcus neoformans it was 4 µg/mL (≈ 9.79 µM); in the data set with Candida tropicalis it was 0.125 µg/mL (≈ 0.306 µM). In the data set on Aspergillus fumigatus, this compound had an MIC of 8 µg/mL (≈ 19.6 µM).
For the compound `CC(C)OC(=O)[C@H](Cn1ccnc1)NC(=O)c1cnc2ccccc2c1`, the minimal inhibitory concentration (MIC) was found to be 64 µg/mL (≈ 182 µM) against Candida albicans [1]; 64 µg/mL (≈ 182 µM) against Candida albicans [2]; 64 µg/mL (≈ 182 µM) in the data set with Cryptococcus neoformans; 32 µg/mL (≈ 90.8 µM) against Candida tropicalis; 64 µg/mL (≈ 182 µM) against Aspergillus fumigatus.
Turning to `CC(C)OC(=O)[C@H](Cn1ccnc1)NC(=O)c1cc2ccccc2o1`, the minimum inhibitory concentration (MIC) against Candida albicans [1] is 16 µg/mL (≈ 46.9 µM); against Candida albicans [2], 32 µg/mL (≈ 93.7 µM); in the data set with Cryptococcus neoformans, 4 µg/mL (≈ 11.7 µM); against Candida tropicalis it was 0.5 µg/mL (≈ 1.46 µM); in the data set with Aspergillus fumigatus, 32 µg/mL (≈ 93.7 µM).
In the case of `CC(C)COC(=O)[C@H](Cn1ccnc1)NC(=O)c1ccc2c(c1)OCO2`, the MIC against Candida albicans [1] was 64 µg/mL (≈ 178 µM); in the data set with Candida albicans [2] it was 64 µg/mL (≈ 178 µM); with Cryptococcus neoformans, 64 µg/mL (≈ 178 µM); against Candida tropicalis, 16 µg/mL (≈ 44.5 µM); in the data set on Aspergillus fumigatus it was 64 µg/mL (≈ 178 µM).
For `CC(C)COC(=O)[C@H](Cn1ccnc1)NC(=O)c1cc2ccccc2n1C`, the MIC against Candida albicans [1] was 8 µg/mL (≈ 21.7 µM); with Candida albicans [2], 8 µg/mL (≈ 21.7 µM); against Cryptococcus neoformans, 4 µg/mL (≈ 10.9 µM); in the data set on Candida tropicalis, 1 µg/mL (≈ 2.71 µM); with Aspergillus fumigatus, 64 µg/mL (≈ 174 µM).
For `CC(C)OC(=O)[C@H](Cn1ccnc1)NC(=O)c1ccc2ncoc2c1`, the MIC against Candida albicans [1] worked out at 64 µg/mL (≈ 187 µM); with Candida albicans [2] it was 64 µg/mL (≈ 187 µM); in the data set with Cryptococcus neoformans it was 64 µg/mL (≈ 187 µM); in the data set on Candida tropicalis, 32 µg/mL (≈ 93.5 µM); against Aspergillus fumigatus it was 64 µg/mL (≈ 187 µM).
For the compound `CC(C)OC(=O)[C@H](Cn1ccnc1)NC(=O)c1cc2ccc(F)cc2[nH]1`, the minimum inhibitory concentration (MIC) with Candida albicans [1] was determined as 32 µg/mL (≈ 89.3 µM); in the data set on Candida albicans [2], 32 µg/mL (≈ 89.3 µM); in the data set on Cryptococcus neoformans, 8 µg/mL (≈ 22.3 µM); in the data set with Candida tropicalis, 0.5 µg/mL (≈ 1.4 µM); against Aspergillus fumigatus it was 64 µg/mL (≈ 179 µM).
Turning to `CC(C)OC(=O)[C@H](Cn1ccnc1)NC(=O)c1noc2c1CCCc1ccccc1-2`, the minimal inhibitory concentration (MIC) came out at 16 µg/mL (≈ 39.2 µM) in the data set on Candida albicans [1]; 2 µg/mL (≈ 4.9 µM) in the data set with Candida albicans [2]; 64 µg/mL (≈ 157 µM) in the data set on Cryptococcus neoformans; 1 µg/mL (≈ 2.45 µM) in the data set on Candida tropicalis; 64 µg/mL (≈ 157 µM) against Aspergillus fumigatus.
Turning to `CC(C)COC(=O)[C@H](Cn1ccnc1)NC(=O)c1cc2ccccc2o1`, the MIC against Candida albicans [1] turned out to be 8 µg/mL (≈ 22.5 µM); with Candida albicans [2], 8 µg/mL (≈ 22.5 µM); against Cryptococcus neoformans, 4 µg/mL (≈ 11.3 µM); against Candida tropicalis, 0.25 µg/mL (≈ 0.703 µM); against Aspergillus fumigatus it was 32 µg/mL (≈ 90 µM).
With `CC(C)OC(=O)[C@H](Cn1ccnc1)NC(=O)c1ccc2c(c1)OCO2`, the MIC in the data set on Candida albicans [1] stood at 64 µg/mL (≈ 185 µM); in the data set with Candida albicans [2], 64 µg/mL (≈ 185 µM); in the data set with Cryptococcus neoformans, 64 µg/mL (≈ 185 µM); against Candida tropicalis, 32 µg/mL (≈ 92.7 µM); with Aspergillus fumigatus, 64 µg/mL (≈ 185 µM).
For the compound `Cc1nc2ccc(C(=O)N[C@@H](Cn3ccnc3)C(=O)OC(C)C)cc2o1`, the minimum inhibitory concentration (MIC) in the data set with Candida albicans [1], with Candida albicans [2], against Cryptococcus neoformans, with Candida tropicalis and against Aspergillus fumigatus was 64 µg/mL (≈ 180 µM) throughout.
`COc1ccc2c(c1)-c1onc(C(=O)N[C@@H](Cn3ccnc3)C(=O)OC(C)C)c1CC2`: the MIC in the data set with Candida albicans [1] was determined as 0.25 µg/mL (≈ 0.589 µM); in the data set with Candida albicans [2], 16 µg/mL (≈ 37.7 µM); against Cryptococcus neoformans it was 64 µg/mL (≈ 151 µM); in the data set with Candida tropicalis, 2 µg/mL (≈ 4.71 µM); against Aspergillus fumigatus, 64 µg/mL (≈ 151 µM).
Regarding `CC(C)COC(=O)[C@H](Cn1ccnc1)NC(=O)c1noc2c1ccc1ccccc12`, the minimum inhibitory concentration (MIC) in the data set on Candida albicans [3] came to 2 µg/mL (≈ 4.92 µM); in the data set with Candida albicans [4], 2 µg/mL (≈ 4.92 µM); against Candida albicans [1], 0.125 µg/mL (≈ 0.308 µM); in the data set on Candida albicans [2], 0.25 µg/mL (≈ 0.615 µM); against Cryptococcus neoformans, 0.125 µg/mL (≈ 0.308 µM); against Candida tropicalis, 0.125 µg/mL (≈ 0.308 µM). Also, the MIC against Aspergillus fumigatus was 16 µg/mL (≈ 39.4 µM).
In the case of `COc1ccc2c(c1)CCc1c(C(=O)N[C@@H](Cn3ccnc3)C(=O)OC(C)C)noc1-2`, the minimum inhibitory concentration (MIC) against Candida albicans [1] amounted to 0.25 µg/mL (≈ 0.589 µM); with Candida albicans [2] it was 4 µg/mL (≈ 9.42 µM); with Cryptococcus neoformans it was 64 µg/mL (≈ 151 µM); against Candida tropicalis, 8 µg/mL (≈ 18.8 µM); in the data set on Aspergillus fumigatus it was 64 µg/mL (≈ 151 µM).
In the case of `CC(C)OC(=O)[C@H](Cn1ccnc1)NC(=O)c1noc2c1ccc1ccccc12`, the MIC against Candida albicans [3] stood at 1 µg/mL (≈ 2.55 µM); in the data set with Candida albicans [4], 2 µg/mL (≈ 5.1 µM); in the data set with Candida albicans [1], 0.125 µg/mL (≈ 0.319 µM); against Candida albicans [2], 0.25 µg/mL (≈ 0.637 µM); against Cryptococcus neoformans, 0.25 µg/mL (≈ 0.637 µM); against Candida tropicalis, 0.125 µg/mL (≈ 0.319 µM). The compound also returned an MIC with Aspergillus fumigatus of 4 µg/mL (≈ 10.2 µM). Also, in data set [5], the remaining at 1 h, 2 µM was found to be 95.8%. The remaining at 2 h, 2 µM in data set [6] amounted to 91.7%.
